Data set [1] concerns the target T1, GTR2/NPF2.11 (Arabidopsis thaliana, UniProt Q9LV10).
T1 construct: forward primer starts ATGGAGAGAAAGCCTCTTG
T1 sequence (Q9LV10 1-616): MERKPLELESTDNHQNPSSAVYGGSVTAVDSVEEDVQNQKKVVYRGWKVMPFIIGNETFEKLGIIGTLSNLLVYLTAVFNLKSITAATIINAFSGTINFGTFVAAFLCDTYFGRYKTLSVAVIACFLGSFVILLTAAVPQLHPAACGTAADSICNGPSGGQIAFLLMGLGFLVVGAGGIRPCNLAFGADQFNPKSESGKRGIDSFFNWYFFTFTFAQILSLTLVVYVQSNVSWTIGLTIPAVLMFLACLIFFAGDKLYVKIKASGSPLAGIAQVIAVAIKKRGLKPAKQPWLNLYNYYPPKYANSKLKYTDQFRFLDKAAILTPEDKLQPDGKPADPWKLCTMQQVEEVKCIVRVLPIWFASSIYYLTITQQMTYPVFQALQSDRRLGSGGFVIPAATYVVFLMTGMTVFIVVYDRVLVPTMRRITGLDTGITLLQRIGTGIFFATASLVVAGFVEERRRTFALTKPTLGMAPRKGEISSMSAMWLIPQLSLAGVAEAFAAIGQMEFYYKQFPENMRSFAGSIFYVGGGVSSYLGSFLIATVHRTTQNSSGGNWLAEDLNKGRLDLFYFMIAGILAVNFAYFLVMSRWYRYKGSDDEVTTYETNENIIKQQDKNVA
The data set can be described thus: uptake into Xenopus oocytes, UPLC/TOFMS. The data set is classed as cell-based. The following applies: pH 5, 24 h uptake, kulori-based buffer.

Substrate in data set [2]: C=C1C[C@]23C[C@@]1(O)CC[C@H]2[C@@]12C=C[C@H](O)[C@@](C)(C(=O)O1)[C@H]2[C@@H]3C(=O)O
The data set can be described thus: uptake into Xenopus oocytes, UPLC/TOFMS. The data set is classed as cell-based, Arabidopsis thaliana. The following applies: pH 5.0, 17 °C, 24 h uptake, kulori-based buffer, 1-2,000 μM GA3.

As to `C=C1C[C@]23C[C@@]1(O)CC[C@H]2[C@@]12C=C[C@H](O)[C@@](C)(C(=O)O1)[C@H]2[C@@H]3C(=O)O` [GA3], the “uptake into Xenopus oocytes, UPLC/TOFMS” value in data set [1] is recorded as “GTR2, a close homologue of GTR1, also transported GA3 into oocytes”.

B1: GTR1/NPF2.10 (Arabidopsis thaliana) (protein)
chain: MKSRVILNHRDRRDKNHNNNNTNHYTQVDTMERKPLEVEPSTTTTNTDVVDSFEEEQRKIVYRGWKVMPFIIGNETFEKLGIIGTLSNLLVYLTSVFNLKSYTAATIINAFSGTINFGTFIAAFLCDTYFGRYKTLSVAVIACFLGSFVILLTAAIPSLHPVACGNKISCEGPSVGQILFLLMGLGFLVVGAGGIRPCNLAFGADQFNPKSESGKKGINSFFNWYFFTFTFAQIISLTAVVYIQSNVSWTIGLIIPVALMFLACVIFFAGDRLYVKVKASGSPLAGIARVIAAAIKKRGLKPVKQPWVNLYNHIPSNYANTTLKYTDQFRFLDKAAIMTPEEKLNSDGTASDPWKLCTLQQVEEVKCIVRVIPIWFASTIYYLAITIQMTYPVFQALQSDRRLGSGGFRIPAATYVVFLMTGMTVFIIFYDRVLVPSLRRVTGLETGISLLQRIGAGFTFAIMSLLVSGFIEERRRNFALTKPTLGMAPRTGEISSMSALWLIPQLTLAGIAEAFAAIGQMEFYYKQFPENMKSFAGSIFYVGAGVSSYLASFLISTVHRTTAHSPSGNWLAEDLNKAKLDYFYFMLTGLMVVNMAYFLLMARWYRYKGGNDEDITEIETNEEETKQQQLQDKNSV
Broadly, the Km is the substrate concentration at which the rate is half of its maximum. Consider B1, for which, in data set [2], the Km is 301.25 ± 225.46 µM.

For the origin of these results see publication PMC4347201, “The jasmonate-responsive GTR1 transporter is required for gibberellin-mediated stamen development in Arabidopsis” (Nature Communications, 2015).
